Legend:
[1] = system: psychrotrophs; assay: Growth of psychrotrophs in raw milk under nitrogen gas; type: cell-based; details: 12.0° C., N1 environment (120 ml/min)
Description: With the device shown in FIG. 1, the effect of nitrogen gas on the natural microflora in raw milk (volume approximately 125 ml) was examined by replacing the air (control) in an open vessel (volume approximately 250 ml) at a constant temperature, with a flow-through of 100% nitrogen gas (purity 99.999%, manufacturer AGA) at two different flow-through rates: N1=120 ml/min, N2=40 ml/min. The temperature of the raw milk in the sample bottles was adjusted by means of the thermostat (14) of the water bath to bring the temperature of the milk to 6.0° C., 7.0° C. or 12.0° C. The temperature variation in the vessel was less than ±0.1° C. The effect of nitrogen gas on the growth of the microflora in a raw milk sample at 12.0° C. Two flow-through rates of the nitrogen gas were used in the study: (▴) 40 ml/min and ([…]) 120 ml/min. […] The following bacterial levels were determined in the samples: The effect of nitrogen gas on the growth of the microflora in a raw milk sample at 12.0° C. Two flow-through rates of the nitrogen gas were used in the study: (▴) 40 ml/min and ([…]) 120 ml/min. […] The following bacterial levels were determined in the samples: […]

[2] = system: anaerobic microbes; assay: Growth of anaerobically cultivated bacteria in raw milk under nitrogen gas; type: cell-based; details: 12.0° C., N1 environment (120 ml/min), Example 5, FIG. 5H
Description: With the device shown in FIG. 1, the effect of nitrogen gas on the natural microflora in raw milk (volume approximately 125 ml) was examined by replacing the air (control) in an open vessel (volume approximately 250 ml) at a constant temperature, with a flow-through of 100% nitrogen gas (purity 99.999%, manufacturer AGA) at two different flow-through rates: N1=120 ml/min, N2=40 ml/min. The temperature of the raw milk in the sample bottles was adjusted by means of the thermostat (14) of the water bath to bring the temperature of the milk to 6.0° C., 7.0° C. or 12.0° C. The temperature variation in the vessel was less than ±0.1° C. The effect of nitrogen gas on the growth of the microflora in a raw milk sample at 12.0° C. Two flow-through rates of the nitrogen gas were used in the study: (▴) 40 ml/min and ([…]) 120 ml/min. […] The following bacterial levels were determined in the samples: FIG. 5A: Total bacteria count (p.m.y./ml) FIG. 5B: Total number of psychrotrophs (p.m.y./ml) FIG. 5C: Total number of proteolytic bacteria (p.m.y./ml) FIG. 5D: Total number of lipolytic bacteria (p.m.y./ml) FIG. 5E: Total number of bacteria producing phospholipase (p.m.y./ml). […]

[3] = system: psychrotrophs in raw milk; details: 7° C., closed system, Dechemi et al.; cited from earlier work
[4] = system: psychrotrophic P. fluorescens strain; details: sterile milk, 4° C., Skura et al.; cited from earlier work
[5] = system: haemolytic bacteria; assay: Number of haemolytic bacteria in raw milk (blood culture dishes) under nitrogen gas; type: cell-based; details: 12.0° C., following four days of treatment
Description: It is possible to measure the effectiveness of nitrogen gas for preventing growth of phospholipase for instance as a difference in the number of haemolytic microbes in the foodstuff or foodstuff material, which is an indication of the growth-preventing effect of the nitrogen gas, which effect is directed at the microbes, which produce phospholipase-transmitted virulence factors (see Example 6 below).
(§1) With the device shown in FIG. 1, the effect of nitrogen gas on the natural microflora in raw milk (volume approximately 125 ml) was examined by replacing the air (control) in an open vessel (volume approximately 250 ml) at a constant temperature, with a flow-through of 100% nitrogen gas (purity 99.999%, manufacturer AGA) at two different flow-through rates: N1=120 ml/min, N2=40 ml/min.
Two flow-through rates of the nitrogen gas were used in the study: (grey) 40 ml/min and (black) 120 ml/min.

[6] = system: bacteria producing phospholipase; assay: Number of phospholipase-producing bacteria (aerobic cultivation) in raw milk under nitrogen gas; type: cell-based
Description: as §1
The temperature of the raw milk in the sample bottles was adjusted by means of the thermostat (14) of the water bath to bring the temperature of the milk to 6.0° C., 7.0° C. or 12.0° C. The temperature variation in the vessel was less than ±0.1° C.
The effect of nitrogen gas on the growth of the microflora in a raw milk sample at 12.0° C. Two flow-through rates of the nitrogen gas were used in the study: (▴) 40 ml/min and ([…]) 120 ml/min. […] The following bacterial levels were determined in the samples:
FIGS. 7A-C show the effect, in three different samples of raw milk (samples A, B and C), of nitrogen gas at 6.0° C. on the number of the bacteria which produce phospholipase. Two flow-through rates of the nitrogen gas were used in the study: (▴) 40 ml/min, i.e. the N2 environment, and ([…]) 120 ml/min, i.e. the N1 environment.

[7] = system: four Pseudomonas strains; details: 15° C., Eyles et al.; cited from earlier work

In the case of `N#N` [nitrogen gas], the “growth of the psychrotrophs” value ([1]; Example 4 sample) is reported as “no longer prevents the growth of the psychrotrophs, instead it delays it”, the “growth of the psychrotrophs” value ([1]; Example 5 sample) is reported as “substantially delay” and the “growth of anaerobic microbes” value [2] is reported as “able to delay the growth”. The “effect of inhibiting the protease activity, among the gas alternatives tested” value [3] was “neither the best nor the worst one”, the “preventing the growth of the microbes and inhibiting the lipase activity, among the protecting gases used” value [3] was “least effective” and the “growth of P. fluorescens strain versus control culture in normal air” value [4] was “grew slower”. The “proteolytic activity of the strain” value [4] was “very low compared with that of the control culture”, the “haemolytic microbes in the raw milk” value ([5]; N1 environment (120 ml/min)) was “none” and the “haemolytic microbes, less than in the control environment” value ([5]; N2 environment (40 ml/min)) was 2 log-units. The “elimination of the bacteria which produce phospholipase” value ([6]; 6° C., N1 environment (120 ml/min), adequately long treatment period, three raw milk samples) was “possible to eliminate the bacteria which produce phospholipase”, the “time from beginning of nitrogen gas treatment to elimination of microbes which produce phospholipase” value ([6]; 12.0° C., N1 environment (120 ml/min), Example 4 sample) was ≤ 96 h and the “growth of the aerobic bacteria which secrete phospholipase” value ([6]; 12.0° C., N1 environment (120 ml/min), Examples 4 and 5, FIG. 5E) was “total prevention of growth”. The “growth of the number of the microbes which produce phospholipase” value ([6]; 12.0° C., N2 environment (40 ml/min), Example 4 sample) was “ceases in the N2 environment after 3 days”, the “growth of the aerobic bacteria which secrete phospholipase” value ([6]; 12.0° C., N2 environment (40 ml/min), after 2 days, FIG. 5E) was “total prevention of growth” and the “growth-preventing effect on phospholipase-positive bacteria” value ([6]; at 7° C.) was “impossible to detect this effect”. For the same compound, the “growth-preventing effect on phospholipase-positive bacteria” value ([6]; at 12° C.) was “the effect of the nitrogen gas was obvious” and the “inhibition of Pseudomonas strains” value [7] was “did not establish that pure nitrogen is capable of significantly inhibiting”.
